These results are taken from ChEMBL document CHEMBL1148945, “Isolation of cytochrome P450 inhibitors from strawberry fruit, Fragaria ananassa” (J Nat Prod, 2004).

For this assay, the target named is Cytochrome P450 3A4 (Homo sapiens, UniProt P08684). Nature of the assay: Inhibition of human CYP3A4. The class given is ADME.
Cytochrome P450 3A4, sequence (P08684 whole entry): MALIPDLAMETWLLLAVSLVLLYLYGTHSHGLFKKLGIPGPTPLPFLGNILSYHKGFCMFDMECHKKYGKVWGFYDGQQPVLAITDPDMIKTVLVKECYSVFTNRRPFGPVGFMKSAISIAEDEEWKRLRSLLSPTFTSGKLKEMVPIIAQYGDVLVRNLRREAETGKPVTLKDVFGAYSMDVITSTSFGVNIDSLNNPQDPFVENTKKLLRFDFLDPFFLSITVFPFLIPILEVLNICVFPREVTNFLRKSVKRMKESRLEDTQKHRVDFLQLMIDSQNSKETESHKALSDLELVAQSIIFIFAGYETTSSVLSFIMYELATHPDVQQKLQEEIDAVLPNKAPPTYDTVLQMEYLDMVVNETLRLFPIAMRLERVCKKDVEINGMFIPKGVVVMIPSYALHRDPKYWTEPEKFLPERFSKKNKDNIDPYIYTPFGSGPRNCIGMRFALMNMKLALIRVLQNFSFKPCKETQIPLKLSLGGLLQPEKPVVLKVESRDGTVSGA
In the case of `CC(C)CC(=O)c1c(O)cc(O)cc1O[C@@H]1O[C@H](CO)[C@@H](O)[C@H](O)[C@H]1O`, half-maximal inhibition (IC50) required 120 µM. Take `O=C(/C=C\c1ccc(O)cc1)OC[C@H]1O[C@@H](Oc2c(-c3ccc(O)cc3)oc3cc(O)cc(O)c3c2=O)[C@H](O)[C@@H](O)[C@@H]1O`: half-maximal inhibition (IC50) was put at 0.7 µM. Turning to `O=C(/C=C/c1ccc(O)cc1)OC[C@H]1O[C@@H](Oc2c(-c3ccc(O)cc3)oc3cc(O)cc(O)c3c2=O)[C@H](O)[C@@H](O)[C@@H]1O` [TILIROSIDE], the midpoint of inhibition, the IC50, lay at 0.7 µM.
